# pIC50: −log10 of the molar value.
# Legend:
# TNKS2 = target: T1, TNKS2 (Homo sapiens, UniProt Q9H2K2); test: Modified TNKS2 Assay 2 (auto-parsylation, [3H]-NAD+ SPA); format: biochemical; details: 6 nM TNKS2, 96 well
# T1 sequence (Q9H2K2 1-1166): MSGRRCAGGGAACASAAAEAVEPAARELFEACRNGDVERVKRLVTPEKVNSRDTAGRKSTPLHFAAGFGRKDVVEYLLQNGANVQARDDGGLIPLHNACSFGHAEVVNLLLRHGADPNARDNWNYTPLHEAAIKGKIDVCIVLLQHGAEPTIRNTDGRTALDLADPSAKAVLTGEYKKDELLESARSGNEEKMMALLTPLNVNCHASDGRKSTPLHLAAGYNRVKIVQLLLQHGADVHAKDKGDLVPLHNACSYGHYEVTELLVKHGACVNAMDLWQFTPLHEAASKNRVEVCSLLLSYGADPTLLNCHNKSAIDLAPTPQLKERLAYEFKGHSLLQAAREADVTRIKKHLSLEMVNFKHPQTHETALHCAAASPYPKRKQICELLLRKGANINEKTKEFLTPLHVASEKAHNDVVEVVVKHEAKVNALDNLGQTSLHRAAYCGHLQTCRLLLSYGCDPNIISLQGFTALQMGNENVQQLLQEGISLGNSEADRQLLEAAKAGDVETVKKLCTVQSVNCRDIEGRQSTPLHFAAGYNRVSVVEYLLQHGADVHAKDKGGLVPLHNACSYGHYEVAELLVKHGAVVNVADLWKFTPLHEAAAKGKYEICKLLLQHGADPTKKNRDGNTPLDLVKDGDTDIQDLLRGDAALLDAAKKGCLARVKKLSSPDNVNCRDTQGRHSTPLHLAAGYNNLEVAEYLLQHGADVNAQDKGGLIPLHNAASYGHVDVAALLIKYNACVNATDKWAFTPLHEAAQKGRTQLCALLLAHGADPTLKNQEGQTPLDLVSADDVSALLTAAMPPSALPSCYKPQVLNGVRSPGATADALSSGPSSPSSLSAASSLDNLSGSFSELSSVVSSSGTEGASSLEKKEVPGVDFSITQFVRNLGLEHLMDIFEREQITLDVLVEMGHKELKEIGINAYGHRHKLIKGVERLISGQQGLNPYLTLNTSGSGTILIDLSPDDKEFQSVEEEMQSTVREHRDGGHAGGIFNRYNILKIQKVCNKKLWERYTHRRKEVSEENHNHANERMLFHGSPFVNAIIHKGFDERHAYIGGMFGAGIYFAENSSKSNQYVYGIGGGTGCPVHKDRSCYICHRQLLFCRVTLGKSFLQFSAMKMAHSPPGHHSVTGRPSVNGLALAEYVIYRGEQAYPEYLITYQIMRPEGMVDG
# [1] = tested on: wildtype Wnt signaling cascade; test: HEK293 TOP Assay (Super TopFlash luciferase reporter, Wnt-3a stimulated); format: cell-based; details: Homo sapiens, HEK293, 16 h
# Outline: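 HEK293 cells stably carrying Super TopFlash (TOP) or FOP reporter, stimulated with recombinant human Wnt-3a (2500–5 ng/ml, two-fold steps). Both lines incubated in parallel with compound from 50 μM to 15 nM (3.16-fold) in CAFTY buffer pH 7.4 with 2 mM Ca2+ and 0.01% BSA; selectivity judged TOP vs FOP.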
# [2] = HEK293 TOP reporter cell line, Wnt-3a at EC50, 16 hours incubation, compound dilution series 50 μM to 15 nM
# [3] = HEK293 TOP reporter cells, Wnt3a at EC50, 16 hours, luciferase
Compound,pIC50 (TNKS2),"pIC50 [1, 2]","pIC50 [1, 3]"
"CC1CCCCN1CCNC(=O)c1[nH]cnc1C(=O)Nc1ccc(NC(=O)c2ccc(F)cc2)cc1 (centres unmarked) [Example 169, N^4-{4-[(4-fluorobenzoyl)amino]phenyl}-N^5-[2-(2-methylpiperidin-1-yl)ethyl]-1H-imidazole-4,5-dicarboxamide]",6.74,6.10,
"CCNC(=O)c1nc[nH]c1C(=O)Nc1ccc(NC(=O)c2ccc(OCC)cc2Cl)cc1 [Example 259, N^5-{4-[(2-chloro-4-ethoxybenzoyl)amino]phenyl}-N^4-ethyl-1H-imidazole-4,5-dicarboxamide]",5.12,6.06,
"CNC(=O)c1nc[nH]c1C(=O)Nc1ccc(NC(=O)c2ccc(Cl)cc2Cl)cc1 [Example 9, N^5-{4-[(2,4-dichlorobenzoyl)amino]phenyl}-N^4-methyl-1H-imidazole-4,5-dicarboxamide]",7.10,6.85,6.82
"O=C(Nc1ccc(NC(=O)c2[nH]cnc2C(=O)NCC(F)(F)F)cc1)c1ccc(F)cc1Cl [Example 30, N^4-{4-[(2-chloro-4-fluorobenzoyl)amino]phenyl}-N^5-(2,2,2-trifluoroethyl)-1H-imidazole-4,5-dicarboxamide]",7.40,6.72,6.80
"CNC(=O)c1nc[nH]c1C(=O)Nc1ccc(NC(=O)c2ccc(OCCN(C)C)cc2Cl)cc1 [Example 25, N^5-[4-({2-chloro-4-[2-(dimethylamino)ethoxy]benzoyl}amino)phenyl]-N^4-methyl-1H-imidazole-4,5-dicarboxamide]",6.66,6.14,6.14
"O=C(Nc1ccc(NC(=O)c2nc[nH]c2C(=O)NCCN2CCCC(F)C2)cc1)c1ccc(F)cc1Cl (centres unmarked) [Example 226, N^4-{4-[(2-chloro-4-fluorobenzoyl)amino]phenyl}-N^5-[2-(3-fluoropiperidin-1-yl)ethyl]-1H-imidazole-4,5-dicarboxamide]",8.70,7.30,
"CNC(=O)c1nc[nH]c1C(=O)Nc1ccc(NC(=O)c2cc(OC)c(OC)cc2Cl)cc1 [Example 240, N^5-{4-[(2-chloro-4,5-dimethoxybenzoyl)amino]phenyl}-N^4-methyl-1H-imidazole-4,5-dicarboxamide]",7.52,7.10,
"CC(C)NC(=O)c1nc[nH]c1C(=O)Nc1ccc(NC(=O)c2ccc(F)cc2Cl)cc1 [Example 10, N^5-{4-[(2-chloro-4-fluorobenzoyl)amino]phenyl}-N^4-isopropyl-1H-imidazole-4,5-dicarboxamide]",6.46,6.77,6.74
"CN(C)CCNC(=O)c1[nH]cnc1C(=O)Nc1ccc(NC(=O)c2ccc(F)cc2Br)cc1 [Example 217, N^4-{4-[(2-bromo-4-fluorobenzoyl)amino]phenyl}-N^5-[2-(dimethylamino)ethyl]-1H-imidazole-4,5-dicarboxamide]",8.10,6.92,
"CNC(=O)c1nc[nH]c1C(=O)Nc1ccc(NC(=O)c2ccc(N(C)C)cc2Cl)cc1 [Example 4, N^5-(4-{[2-chloro-4-(dimethylamino)benzoyl]amino}phenyl)-N^4-methyl-1H-imidazole-4,5-dicarboxamide]",< 5.00,6.04,6.04
"O=C(Nc1ccc(NC(=O)c2ocnc2C(=O)NCCN2CCC(F)(F)CC2)cc1)c1ccc(F)cc1Cl [Example 218, N^5-{4-[(2-chloro-4-fluorobenzoyl)amino]phenyl}-N^4-[2-(4,4-difluoropiperidin-1-yl)ethyl]-1,3-oxazole-4,5-dicarboxamide]",6.96,5.79,
"CNC(=O)c1nc[nH]c1C(=O)Nc1ccc(NC(=O)c2ccccc2C(F)F)cc1 [Example 241, N^5-(4-{[2-(difluoromethyl)benzoyl]amino}phenyl)-N^4-methyl-1H-imidazole-4,5-dicarboxamide]",5.74,5.72,
"CCS(=N)(=O)c1ccc(C(=O)Nc2ccc(NC(=O)c3[nH]cnc3C(=O)NC)cc2)c(Cl)c1 (centres unmarked) [Example 255, N^5-(4-{[2-chloro-4-(S-ethylsulfonimidoyl)benzoyl]amino}phenyl)-N^4-methyl-1H-imidazole-4,5-dicarboxamide]",6.19,5.91,
"CC1CCN(CCNC(=O)c2[nH]cnc2C(=O)Nc2ccc(NC(=O)c3ccc(F)cc3)cc2)CC1 [Example 164, N^4-{4-[(4-fluorobenzoyl)amino]phenyl}-N^5-[2-(4-methylpiperidin-1-yl)ethyl]-1H-imidazole-4,5-dicarboxamide]",7.22,6.04,

# More lines, now with the values ahead:
pIC50 (TNKS2),"pIC50 [1, 2]","pIC50 [1, 3]",Compound
8.00,6.19,,"CC(CNC(=O)c1[nH]cnc1C(=O)Nc1ccc(NC(=O)c2ccccc2Cl)cc1)N1CCCCC1 (centres unmarked) [Example 182, N^4-{4-[(2-chlorobenzoyl)amino]phenyl}-N^5-[2-(piperidin-1-yl)propyl]-1H-imidazole-4,5-dicarboxamide]"
5.30,5.59,,"CCNC(=O)c1nc[nH]c1C(=O)Nc1ccc(NC(=O)c2ccccc2S(C)(=O)=O)cc1 [Example 257, N^4-ethyl-N^5-(4-{[2-(methylsulfonyl)benzoyl]amino}phenyl)-1H-imidazole-4,5-dicarboxamide]"
6.28,6.41,6.47,"CNC(=O)c1nc[nH]c1C(=O)Nc1ccc(NC(=O)c2ccccc2Cl)cc1 [Example 27, N^5-{4-[(2-chlorobenzoyl)amino]phenyl}-N^4-methyl-1H-imidazole-4,5-dicarboxamide]"
5.96,5.76,,"CC(C)(C)CNC(=O)c1[nH]cnc1C(=O)Nc1ccc(NC(=O)c2ccccc2Cl)cc1 [Example 148, N^4-{4-[(2-chlorobenzoyl)amino]phenyl}-N^5-(2,2-dimethylpropyl)-1H-imidazole-4,5-dicarboxamide]"
8.70,7.70,,"O=C(Nc1ccc(NC(=O)c2nc[nH]c2C(=O)NCCN2CCCCC2)cc1)c1ccc(F)cc1Br [Example 216, N^4-{4-[(2-bromo-4-fluorobenzoyl)amino]phenyl}-N^5-[2-(piperidin-1-yl)ethyl]-1H-imidazole-4,5-dicarboxamide]"
< 5.00,4.33,,"CNC(=O)c1nc[nH]c1C(=O)Nc1ccc(NC(=O)c2ccccc2O)cc1 [Example 239, N^5-{4-[(2-hydroxybenzoyl)amino]phenyl}-N^4-methyl-1H-imidazole-4,5-dicarboxamide]"
6.68,6.15,,"CC(C)(CN1CCOCC1)NC(=O)c1[nH]cnc1C(=O)Nc1ccc(NC(=O)c2ccc(F)cc2Cl)cc1 [Example 207, N^4-{4-[(2-chloro-4-fluorobenzoyl)amino]phenyl}-N^5-[2-methyl-1-(morpholin-4-yl)propan-2-yl]-1H-imidazole-4,5-dicarboxamide]"
6.47,6.17,,"CC(C)(CN1CCCCC1)NC(=O)c1[nH]cnc1C(=O)Nc1ccc(NC(=O)c2ccccc2Cl)cc1 [Example 171, N^4-{4-[(2-chlorobenzoyl)amino]phenyl}-N^5-[2-methyl-1-(piperidin-1-yl)propan-2-yl]-1H-imidazole-4,5-dicarboxamide]"
6.34,6.07,,"CC(C)(CNC(=O)c1[nH]cnc1C(=O)Nc1ccc(NC(=O)c2ccc(F)cc2)cc1)N1CCCCC1 [Example 209, N^4-{4-[(4-fluorobenzoyl)amino]phenyl}-N^5-[2-methyl-2-(piperidin-1-yl)propyl]-1H-imidazole-4,5-dicarboxamide]"
6.48,6.28,,"O=C(Nc1ccc(NC(=O)c2nc[nH]c2C(=O)NCCF)cc1)c1ccccc1Cl [Example 166, N^4-{4-[(2-chlorobenzoyl)amino]phenyl}-N^5-(2-fluoroethyl)-1H-imidazole-4,5-dicarboxamide]"
8.70,7.52,,"CC1CCCN(CCNC(=O)c2[nH]cnc2C(=O)Nc2ccc(NC(=O)c3ccc(F)cc3Cl)cc2)C1 (centres unmarked) [Example 208, N^4-{4-[(2-chloro-4-fluorobenzoyl)amino]phenyl}-N^5-[2-(3-methylpiperidin-1-yl)ethyl]-1H-imidazole-4,5-dicarboxamide]"
